Peptide text beside a SMILES is read from it.
Assay: Amount of magnesium captured per 100 g of substance (X), ion-selective electrode method
Assay type: physicochemical
Method: As for the substance (X), the amount of magnesium captured per 100 g of the substance (X) is preferably 1 g or more, as measured by the ion-selective electrode method.
When the substance (X) is a hydrate, 100 g of the substance (X) refers to 100 g by weight excluding hydration water.
The measurement by the ion-selective electrode method is performed using 2 mM of the substance (X) relative to a 1 mM aqueous MgCl2 solution having a temperature of 20° C. and a pH of 7.
Each substance (X) was subjected to measurement of the amount (g) of magnesium captured per 100 g of the substance (X) by the ion-selective electrode method as follows. For (X-5), the amount of magnesium captured per 100 g of Na2WO4 contained in (X-5) was measured. For (X-16), the amount of magnesium captured per 100 g of adenosine triphosphate disodium contained in (X-16) was measured.
The measurement by the ion-selective electrode method was performed using 2 mM of the substance (X) relative to a 1 mM aqueous MgCl2 solution having a temperature of 20° C. and a pH of 7.

Structure (SMILES)	Amount of magnesium (g) captured per 100 g of substance (X) [g]
Oc1cccc2cccnc12 [Example X-14, 8-Quinolinol]	2
CC(=O)CC(=O)c1ccccc1 [Example X-3, Benzoylacetone]	3
Nc1ncnc2c1ncn2[C@@H]1O[C@H](COP(=O)([O-])OP(=O)([O-])OP(=O)(O)O)[C@@H](O)[C@H]1O.O.O.O.[Na+].[Na+] [Example X-16, Adenosine triphosphate disodium trihydrate]	5
O=P([O-])([O-])OP(=O)([O-])OP(=O)([O-])[O-].[Na+].[Na+].[Na+].[Na+].[Na+] [Example X-1, Pentasodium triphosphate]	5
CC(=O)CCC(=O)O [Example X-4, Levulinic acid]	2
O=C(O)CC(O)C(=O)O (stereo not shown) [Example X-8, Malic acid]	15
O=C(O)[C@H](O)[C@@H](O)[C@H](O)[C@H](O)CO [Example X-10, Gluconic acid]	30

The remaining lines, values ahead:

Amount of magnesium (g) captured per 100 g of substance (X) [g]	Structure (SMILES)
2	NCC(=O)NCC(=O)O [Example X-6, Glycylglycine] (H-Gly-Gly-OH)
9	O=C(O)C(O)C(O)C(=O)O (stereo not shown) [Example X-15, Tartaric acid]
8	O=C(O)CNCC(=O)O [Example X-13, Iminodiacetic acid]
10	O=C(O)CN(CCN(CC(=O)O)CC(=O)O)CC(=O)O [Example X-12, Ethylenediaminetetraacetic acid]
20	O=C(O)CC(O)(CC(=O)O)C(=O)O [Example X-9, Citric acid]
3	CC(=O)CC(C)=O [Example X-2, Acetylacetone]
2	N[C@@H](CCC(=O)O)C(=O)O [Example X-7, Glutamic acid]
2	O.O.[Na+].[Na+].[O]=[W](=[O])([O-])[O-] [Example X-5, Sodium tungstate dihydrate]
15	O=C[C@H](O)[C@@H](O)[C@H](O)[C@H](O)C(=O)O [Example X-11, Glucuronic acid]

Source: patent US20250268852A1, “MICROBIOTA IMPROVING AGENT” (SANYO CHEMICAL INDUSTRIES, LTD., priority 2022, published 2025)
